From publication PMC8151276, “An Integrated Approach toward NanoBRET Tracers for Analysis of GPCR Ligand Engagement” (Molecules, 2021)

How the values were obtained:
Assay type in all cases: binding
[1] = molecular target: T1, HRH4 (Homo sapiens, UniProt Q9H3N8); experiment: NanoBRET screen HiBiT-HRH4 in HEK293
T1 construct: purchased Promega (in-house HiBiT-GPCR construct library, NanoBRET)
Method: (§1) Each tracer candidate was screened across the entire library of HiBiT-GPCR constructs using NanoBRET as the detection modality. As depicted in Figure 4A, the specificity of interactions was evaluated through decrease in BRET due to competitive displacement of a bound tracer by excess parental compound. Each tracer was analyzed for binding to each HiBiT-GPCR fusion in the absence and in the presence of competing parental compound. Briefly, HEK293 cells were transfected with HiBiT-GPCR constructs diluted into promoterless DNA to reduce expression and maximize translocation to the cell surface. Each tracer candidate was then screened at concentrations of 1 μM and 0.1 μM across cells expressing these fusions. Cells were treated for 1.5 h with tracer either alone or in the presence of 20 μM competing parental compound (i.e., control). BRET was measured upon addition of purified LgBiT and subsequent complementation with HiBiT genetically fused to a GPCR. The specificity of interactions was assessed through a decrease in BRET signal due to competitive displacement of the bound tracer. To further gauge the robustness of these interactions, the fold response over the control (i.e., BRETtracer/BRETcontrol) was calculated. We chose a 1.5-fold response, which translates to ≥7-fold signal over noise as the minimal threshold required to score an interaction as positive. […]. Below we highlight the screening results obtained for our exemplary fluorescent tracers based on Clozapine, Amitriptyline and AZD1283.
(§2) HiBiT-GPCR DNA constructs were diluted in 10 mM Tris pH 8 to a final concentration of 0.01 μg/μL, arrayed in 96-well plates and stored at −20 °C. For transfection, HEK293 cells were suspended in Opti-MEM (without phenol red) supplemented with 2% fetal bovine serum (Seradigm) and 100 units/mL penicillin–streptomycin (Gibco) at a final concentration of 220,000 cells/mL and dispensed into white 96-well plates at 90 μL/well. Subsequent transfections and screens were carried using an Agilent Bravo Automated Liquid Handling Platform. First, the 96-well HiBiT DNA arrays were diluted 25-fold in Opti-MEM (without serum or phenol red) to a final concentration of 0.0004 μg/μL and 20 μL of the diluted DNAs were transferred into new 96-well plates. Next, promoterless carrier DNA (1 μg/μL) was diluted 25-fold (0.04 μg/μL) and then dispensed into the diluted arrays at 20 μL/well. Following brief mixing, Viafect transfection reagent (Promega) diluted 16-fold into Opti-MEM was dispensed into the plates at 40 μL/well. After mixing by pipetting, plates were incubated for 10 min on the pipetting station deck. The DNA-transfection reagent complexes were then added to plates containing cells. To facilitate the screen, 10 μL of DNA-transfection reagent complexes were added in duplicates to the top 4 and bottom 4 rows, resulting in two identical 48-well arrays per plate. Plates with transfected cells were incubated for 18–20 h at 37 °C/5% CO2. A screen of each tracer across the entire library using two different concentrations requires duplicate plates of transfected cells. Depending on the number of tracers being screened, transfections can be scaled up using the same ratios. The next day, for each tracer, four 20× screening solutions in tracer dilution buffer (Promega) were prepared: two duplicates at final concentration of 20 μM and two duplicates at a final concentration of 2 μM. A competing unmodified compound was added to one of each duplicate at a final concentration of 400 μM. The four resulting solutions were diluted 4-fold in Opti-MEM without serum or phenol red to generate 5× solutions (5 µM and 0.5 µM tracer +/− 100 μM competing compound). To screen the library, a BioTek MultiFlo FX liquid dispenser was used to dispense 22.5 µL of tracer solution to the top 4 rows and 22.5 µL tracer + competing compound solution to the 4 bottom rows. Plates were briefly mixed on an orbital shaker and incubated for 1.5 h at room temperature. […]

[2] = molecular target: T2, PTGER2 (Homo sapiens, UniProt P43116); experiment: NanoBRET screen HiBiT-PTGER2 in HEK293
T2 construct: purchased Promega (in-house HiBiT-GPCR construct library, NanoBRET)
T2 sequence (P43116 whole entry): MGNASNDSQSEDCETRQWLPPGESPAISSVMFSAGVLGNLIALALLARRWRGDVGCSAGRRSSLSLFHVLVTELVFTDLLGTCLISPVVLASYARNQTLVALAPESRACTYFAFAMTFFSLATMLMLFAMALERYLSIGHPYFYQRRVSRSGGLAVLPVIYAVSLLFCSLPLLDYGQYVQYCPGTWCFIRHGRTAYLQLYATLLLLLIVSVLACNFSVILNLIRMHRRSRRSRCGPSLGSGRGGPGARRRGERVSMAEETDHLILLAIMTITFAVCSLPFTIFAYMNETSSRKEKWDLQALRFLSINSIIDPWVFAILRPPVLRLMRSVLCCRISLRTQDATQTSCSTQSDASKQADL
Method: as §1, §2

[3] = molecular target: T3, NPY1R (Homo sapiens, UniProt P25929); experiment: NanoBRET screen HiBiT-NPY1R in HEK293
T3 construct: purchased Promega (in-house HiBiT-GPCR construct library, NanoBRET)
T3 sequence (P25929 1-384): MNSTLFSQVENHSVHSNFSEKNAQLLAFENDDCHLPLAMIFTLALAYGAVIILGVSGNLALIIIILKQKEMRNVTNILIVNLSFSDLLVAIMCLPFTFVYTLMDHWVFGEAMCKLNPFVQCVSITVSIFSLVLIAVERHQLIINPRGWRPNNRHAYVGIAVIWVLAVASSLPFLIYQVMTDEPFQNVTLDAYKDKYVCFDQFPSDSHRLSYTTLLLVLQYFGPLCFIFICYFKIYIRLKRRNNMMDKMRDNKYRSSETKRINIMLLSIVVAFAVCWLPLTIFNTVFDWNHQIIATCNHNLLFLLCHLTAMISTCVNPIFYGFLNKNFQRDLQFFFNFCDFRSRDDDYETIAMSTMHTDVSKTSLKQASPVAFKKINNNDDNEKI
Method: as §1, §2

[4] = molecular target: T4, FZD6 (Homo sapiens, UniProt O60353); experiment: NanoBRET screen HiBiT-FZD6 in HEK293
T4 construct: purchased Promega (in-house HiBiT-GPCR construct library, NanoBRET)
T4 sequence (O60353 19-706): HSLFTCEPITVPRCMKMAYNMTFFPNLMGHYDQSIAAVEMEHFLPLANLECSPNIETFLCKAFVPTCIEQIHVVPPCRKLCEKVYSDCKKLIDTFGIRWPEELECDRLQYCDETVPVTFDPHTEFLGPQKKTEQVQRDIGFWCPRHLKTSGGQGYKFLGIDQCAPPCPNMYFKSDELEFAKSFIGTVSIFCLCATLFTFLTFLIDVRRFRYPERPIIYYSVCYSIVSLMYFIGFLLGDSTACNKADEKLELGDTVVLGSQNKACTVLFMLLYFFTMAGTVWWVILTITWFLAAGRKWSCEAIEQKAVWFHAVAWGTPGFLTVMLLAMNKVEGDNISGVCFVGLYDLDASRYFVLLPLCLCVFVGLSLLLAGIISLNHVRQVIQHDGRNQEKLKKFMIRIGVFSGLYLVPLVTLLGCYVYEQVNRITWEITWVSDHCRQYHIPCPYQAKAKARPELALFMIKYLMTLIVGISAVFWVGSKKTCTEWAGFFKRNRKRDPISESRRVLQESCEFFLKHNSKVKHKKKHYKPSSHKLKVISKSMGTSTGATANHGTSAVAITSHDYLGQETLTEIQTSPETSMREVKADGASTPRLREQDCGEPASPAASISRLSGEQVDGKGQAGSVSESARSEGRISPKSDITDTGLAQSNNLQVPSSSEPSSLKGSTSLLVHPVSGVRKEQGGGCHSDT
Method: as §1, §2

[5] = molecular target: T5, SMO (Homo sapiens, UniProt Q99835); experiment: NanoBRET screen HiBiT-SMO in HEK293
T5 construct: purchased Promega (in-house HiBiT-GPCR construct library, NanoBRET)
T5 sequence (Q99835 28-787): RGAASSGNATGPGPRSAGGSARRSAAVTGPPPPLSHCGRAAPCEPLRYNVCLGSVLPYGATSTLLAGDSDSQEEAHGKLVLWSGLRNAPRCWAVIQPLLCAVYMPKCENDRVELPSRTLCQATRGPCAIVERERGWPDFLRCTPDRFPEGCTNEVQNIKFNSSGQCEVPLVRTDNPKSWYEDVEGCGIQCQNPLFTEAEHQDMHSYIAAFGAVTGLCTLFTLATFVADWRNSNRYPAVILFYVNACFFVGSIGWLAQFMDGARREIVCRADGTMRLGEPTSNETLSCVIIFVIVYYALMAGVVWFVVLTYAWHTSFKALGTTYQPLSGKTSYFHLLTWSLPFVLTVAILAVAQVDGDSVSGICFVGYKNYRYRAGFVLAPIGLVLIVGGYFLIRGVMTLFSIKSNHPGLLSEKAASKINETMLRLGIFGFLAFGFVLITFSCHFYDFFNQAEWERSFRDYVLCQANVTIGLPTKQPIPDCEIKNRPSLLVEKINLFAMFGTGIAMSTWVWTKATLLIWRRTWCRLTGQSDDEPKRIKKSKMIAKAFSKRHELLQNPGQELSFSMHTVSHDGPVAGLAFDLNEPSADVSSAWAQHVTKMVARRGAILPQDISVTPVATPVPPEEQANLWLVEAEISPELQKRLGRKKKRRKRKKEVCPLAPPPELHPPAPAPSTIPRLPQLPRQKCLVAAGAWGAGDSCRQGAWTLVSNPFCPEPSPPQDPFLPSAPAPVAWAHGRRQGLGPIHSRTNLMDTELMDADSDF
Method: as §1, §2

[6] = tracer at 0.1μM, listed as amitriptyline-b-2-NB590
[7] = tracer at 1μM, listed as amitriptyline-b-2-NB590

T1 sequence (Q9H3N8 whole entry): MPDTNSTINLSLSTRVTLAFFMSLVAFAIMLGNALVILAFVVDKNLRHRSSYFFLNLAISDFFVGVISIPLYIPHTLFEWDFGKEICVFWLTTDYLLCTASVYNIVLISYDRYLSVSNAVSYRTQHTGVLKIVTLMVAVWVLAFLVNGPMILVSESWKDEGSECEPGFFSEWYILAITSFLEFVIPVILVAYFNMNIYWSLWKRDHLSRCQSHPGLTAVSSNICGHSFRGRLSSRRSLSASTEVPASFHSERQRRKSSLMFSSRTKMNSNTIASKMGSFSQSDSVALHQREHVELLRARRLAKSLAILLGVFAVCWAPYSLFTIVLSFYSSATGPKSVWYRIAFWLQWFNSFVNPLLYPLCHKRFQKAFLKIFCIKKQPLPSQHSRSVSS

CCOC(=O)c1cc(C#N)c(N2CCC(C(=O)NS(=O)(=O)Cc3ccccc3/C=C/C(=O)NCCNC(=O)CCc3ccc4n3[B-](F)(F)[N+]3=C(c5ccc[nH]5)C=CC3=C4)CC2)nc1C [AZD1283-1-NB590]
NanoBRET Fold Response ([1]; HRH4, 0.1μM): 1.16 | NanoBRET Fold Response ([1]; HRH4, 1μM): 1.10 | NanoBRET Fold Response ([2]; PTGER2, 0.1μM): 1.00 | NanoBRET Fold Response ([2]; PTGER2, 1μM): 1.04 | NanoBRET Fold Response ([3]; NPY1R, 0.1μM): 1.10 | NanoBRET Fold Response ([3]; NPY1R, 1μM): 1.04 | NanoBRET Fold Response ([4]; FZD6, 0.1μM): 1.01 | NanoBRET Fold Response ([4]; FZD6, 1μM): 0.35 | NanoBRET Fold Response ([5]; SMO, 0.1μM): 1.05 | NanoBRET Fold Response ([5]; SMO, 1μM): 1.13

N#CN=C(NCCCOc1cccc(CN2CCCCC2)c1)NCCNC(=O)CCOCCOCCOCCOCCNC(=O)CCc1ccc2n1[B-](F)(F)[N+]1=C(c3ccc[nH]3)C=CC1=C2 [Aminopotentidine-2-NB590]
NanoBRET Fold Response ([1]; HRH4, tracer 0.1μM): 0.91 | NanoBRET Fold Response ([1]; HRH4, tracer 1μM): 1.02 | NanoBRET Fold Response ([2]; PTGER2, tracer 0.1μM): 0.99 | NanoBRET Fold Response ([2]; PTGER2, tracer 1μM): 1.03 | NanoBRET Fold Response ([3]; NPY1R, tracer 0.1μM): 0.99 | NanoBRET Fold Response ([3]; NPY1R, tracer 1μM): 1.01 | NanoBRET Fold Response ([4]; FZD6, tracer 0.1μM): 1.03 | NanoBRET Fold Response ([4]; FZD6, tracer 1μM): 1.03 | NanoBRET Fold Response ([5]; SMO, tracer 0.1μM): 1.03 | NanoBRET Fold Response ([5]; SMO, tracer 1μM): 0.91

CN(C)CCC=C1c2ccccc2CCc2ccc(C(=O)NCCNC(=O)CCOCCOCCOCCOCCNC(=O)CCc3ccc4n3[B-](F)(F)[N+]3=C(c5ccc[nH]5)C=CC3=C4)cc21 [Amitriptyline-a-2-NB590]
NanoBRET Fold Response ([1]; tracer at 0.1μM): 1.23 | NanoBRET Fold Response ([1]; tracer at 1μM): 1.04 | NanoBRET Fold Response ([3]; tracer at 0.1μM): 1.00 | NanoBRET Fold Response ([3]; tracer at 1μM): 1.03 | NanoBRET Fold Response ([4]; tracer at 0.1μM): 1.10 | NanoBRET Fold Response ([4]; tracer at 1μM): 1.03

CN(C)CCC=C1c2ccccc2CCc2ccc(C(=O)NCCNC(=O)CCOCCOCCOCCOCCNC(=O)CCc3ccc4n3[B-](F)(F)[N+]3=C(c5ccc[nH]5)C=CC3=C4)cc21 [Amitriptyline-b-2-NB590]
NanoBRET Fold Response [1, 6]: 0.97 | NanoBRET Fold Response [1, 7]: 1.13 | NanoBRET Fold Response ([2]; tracer at 0.1μM): 1.01 | NanoBRET Fold Response ([2]; tracer at 1μM): 1.01 | NanoBRET Fold Response [3, 6]: 0.90 | NanoBRET Fold Response [3, 7]: 1.11 | NanoBRET Fold Response [4, 6]: 1.00 | NanoBRET Fold Response ([4]; tracer at 1μM): 0.98 | NanoBRET Fold Response ([5]; tracer at 1μM): 0.97

CN(CCC=C1c2ccccc2CCc2ccccc21)C(=O)CCOCCOCCOCCOCCNC(=O)CCc1ccc2n1[B-](F)(F)[N+]1=C(c3ccc[nH]3)C=CC1=C2 [Amitriptyline-e-2-NB590]
NanoBRET Fold Response ([1]; tracer at 1μM): 0.92 | NanoBRET Fold Response ([4]; tracer at 1μM): 1.09
